# Measurements from PMC10214526, “Semisynthetic LC3 Probes for Autophagy Pathways Reveal a Noncanonical LC3 Interacting Region Motif Crucial for the Enzymatic Activity of Human ATG3” (ACS Central Science, 2023).
# Assays:
# Assay type in all cases: biochemical, human
# ATG3 [1] = test: Reaction (cross-linking) of Ubl activity-based probes with recombinant ATG3 and variants; details: probe 15 μM, SDS-PAGE
# Description: Figure 1 Modification of ATG3 with GABARAP ABPs depends on LIR^ATG3. a. Characterization of GABARAP activity-based probes, 1 and 2, obtained by hydrazide-acylation. Deconvoluted mass-spectrum (ESI) of GABARAP(ΔG116)–NHNH α-chloroacetyl 1. Expected mass 13707 Da. Deconvoluted mass-spectrum (ESI) of GABARAP(ΔG116)–NHNH methyl-fumarate 2. Expected mass 13743 Da. b. […] The reaction was allowed to proceed for 1 h and was analyzed by SDS-PAGE and Coomassie Blue staining. c. ColabFold-predicted structure of the protein-complex of ATG3 and GABARAP. Side-chain atoms are shown for the predicted LIR motif in ATG3 (90–112). d. Reaction of 2 (15 μM) with ATG3 variants C1, C0, and ΔLIR (15 μM). ATG3 C1 contains only active-site cysteine C264. ATG3 C0 contains no cysteines. ATG3 ΔLIR lacks amino acids 95–111. Reaction was allowed to proceed for 1 h and was analyzed by SDS-PAGE and Coomassie Blue staining. Full-gel images for b and d are available in the Supplementary Information.
# We were intrigued by the cross-linking efficiency of 2 with ATG3 and sought to investigate the origin of this efficiency by generating a C1 variant of ATG3 that only contains the catalytic cysteine 264 and a corresponding C0 variant containing no cysteines. […] In general, the affinity of E2s for their cognate Ubls are quite low, as the thioester transfer from the E1 to the E2 enzyme is facilitated by additional interactions from the UFD domain of the E1 enzyme.[23] […]
# Upon completion the solution was dialyzed against 25 mM
# HEPES, 200 mM NaCl pH 7.2 at 4 °C. Cleaved intein was removed using gravity Ni-NTA purification.
# The flow-through was collected and combined with resin washes. The combined fractions were dialyzed and further purified using ion exchange.
# 3.3. Generation of GABARAP and LC3A hydrazides from SUMO-GABARAP/LC3A-Mxe GyrA-
# SUMO-GABARAP/LC3A-Mxe GyrA-His6 fusion after Ni-NTA purification was dialyzed against intein cleavage buffer (25 mM HEPES, 500 mM NaCl, 1 mM EDTA pH 7.2 at 4 °C). After dialysis hydrazine monohydrate (75 mM) and MESNa (10 mM) was added and the pH adjusted to 7.8. The solution was allowed to stand at room temperature and monitored using LC-MS analysis. Upon completion the solution was dialyzed against 25 mM HEPES, 500 mM NaCl pH 7.2 at 4 °C. SENP1 (1 wt%) was added to cleave the SUMO-tag. The cleaved intein was removed using gravity Ni-NTA purification. […]
# dialyzed and further purified using cation exchange using a buffer 25 mM Tris pH 8.0 and a gradient of […] in the same buffer over 25 column volumes. The product fractions were pooled, concentrated, and stored at –80 °C until further use.
# 3.4. Synthesis of symmetrical anhydrides
# The carboxylic acid was dissolved in CH2Cl2 (300 mM) and dicyclohexylcarbodiimide (0.5 eqiv) was added in one portion. The reaction was stirred under N2 for 18 h. The suspension was filtered and concentrated to ~10% of the initial volume. The solution was placed at 4 °C for 1 h and filtered again.
# The filtrate was concentrated to obtain the symmetrical anhydride which was used without further purification. Anhydrides can be stored at –20 °C for weeks.
# 3.5. Reaction of modified Ubl probes with E2s
# Ubl probes (15 μM) were mixed with E2s (15 μM) in PBS. The mixture was incubated at 37 °C in a water bath for 0.5-3 h. The reaction was quenched by addition of 2x Laemmli buffer and boiled at 95 °C for 5 min. Samples were resolved by SDS-PAGE (8-16%, Bio-Rad) and visualized by […]
# Coomassie staining. […]
# ATG3 C1 alanine variants = test: Alanine screen: cross-linking of probe 2 with ATG3 C1 alanine variants; details: probe 2 15 μM, PBS, 37 °C, 30 min, n = 2
# Description: Figure 4 Dissection of interactions between GABARAP and LIR^ATG3 by alanine scanning. GABARAP probe 2 (15 μM) was reacted with ATG3 C1 alanine variants (15 μM) for 30 min. Coomassie Blue stained SDS-PAGE gel showing modification of ATG3 C1 variants with GABARAP methyl fumarate. The indicated ATG3 residues were mutated to alanine. Cross-linking efficiency was estimated by gel densitometry and normalized to the reaction with ATG3 C1. Data are presented as average values ± s.d. n = 2 independent experiments. Full-gel images are available in the Supplementary Information.
# Farnung et al. Supplementary Information
# SDS-PAGE (8-16%, Bio-Rad) and visualized by Coomassie staining. Gel bands were quantified by gel densitometry using ImageLab (Bio-Rad).
# ATG3 C1 (15 μM) was mixed with GABARAP methyl fumarate 2 (15 μM) in PBS, and the reaction mixture was incubated at 37 °C for 30 min. The reaction was quenched by addition of 2x Laemmli buffer and boiled at 95 °C for 5 min. Samples were resolved by SDS-PAGE (8-16%, Bio-Rad) and visualized by Coomassie staining. Gel bands were quantified by gel densitometry using ImageLab […]
# 3.9. Structure prediction […]
# ! ! ( )"% - ) ( $&, . "#*( *"&% % *! "#*( * &% %*( * +% ( ( + '( ))+( ! )&#+*"&%- )*("*+( * -"*! * % %*(" + *&& * "% (+ ' '*" ! […]
# ATG3 [2] = test: Reaction (cross-linking) of Ubl activity-based probes with recombinant ATG3 and variants; details: probe 15 μM; ATG3 wt, C264A and ΔLIR 5 μM; SDS-PAGE (Figure S9)
substance,measurement,setting,value
GABARAP(ΔG116)–NHNH methyl-fumarate [compound 2],Reaction with ATG3 wt,"ATG3 [1]; ATG3 15 μM, 1 h, Coomassie Blue",reacted with ATG3 efficiently leading to the formation of multiple ATG3–GABARAP bands
same,Reaction with ATG3 C0,ATG3 [1]; ATG3 C0 (no cysteines) 15 μM,no reaction was observed
same,Reaction with ATG3 C1,ATG3 [1]; ATG3 C1 (only active-site C264) 15 μM,excellent reactivity
same,Reaction with ATG3 ΔLIR,ATG3 [1]; ATG3 C1 ΔLIR (Δ95–111) 15 μM,no complex formation
same,Reaction with ATG3 C264A,ATG3 [1]; catalytically inactive ATG3 C264A 15 μM,loss of one ATG3–GABARAP band but did not abrogate additional bands for the complex
same,Cross-linking with ATG3 D109 or T110 mutants,"ATG3 C1 alanine variants; D109 or T110 to alanine, ATG3 C1 variant 15 μM",almost no effect on reaction efficiency
same,Cross-linking with ATG3 E95 and I97 mutants,"ATG3 C1 alanine variants; E95 and I97 to alanine, ATG3 C1 variant 15 μM",severely diminish cross-linking
same,Cross-linking with ATG3 V108A,"ATG3 C1 alanine variants; V108A, ATG3 C1 variant 15 μM, relative to ATG3 C1",significantly reduced the cross-linking efficiency
same,Cross-linking with ATG3 W107 mutant,"ATG3 C1 alanine variants; W107A, ATG3 C1 variant 15 μM, relative to ATG3 C1",almost completely abrogated the reaction
same,Cross-linking with other ATG3 alanine mutants,ATG3 C1 alanine variants; majority of the other screened residues,at least some impact on the conjugation with GABARAP
same,LIR dependence of ATG3 wild-type modification,ATG3 [2],dependent on LIRATG3
